Source: patent US20120196853A1, “Novel Quinoline-Hepcidine Antagonists” (VIFOR (INTERNATIONAL) AG, priority 2009, published 2012)

Molecular target: T1, human ferroportin (Fpn-HaloTag fusion protein) (Homo sapiens, UniProt Q9NP59)
T1 construct: expressed in transfected cells
T1 sequence (Q9NP59 1-571): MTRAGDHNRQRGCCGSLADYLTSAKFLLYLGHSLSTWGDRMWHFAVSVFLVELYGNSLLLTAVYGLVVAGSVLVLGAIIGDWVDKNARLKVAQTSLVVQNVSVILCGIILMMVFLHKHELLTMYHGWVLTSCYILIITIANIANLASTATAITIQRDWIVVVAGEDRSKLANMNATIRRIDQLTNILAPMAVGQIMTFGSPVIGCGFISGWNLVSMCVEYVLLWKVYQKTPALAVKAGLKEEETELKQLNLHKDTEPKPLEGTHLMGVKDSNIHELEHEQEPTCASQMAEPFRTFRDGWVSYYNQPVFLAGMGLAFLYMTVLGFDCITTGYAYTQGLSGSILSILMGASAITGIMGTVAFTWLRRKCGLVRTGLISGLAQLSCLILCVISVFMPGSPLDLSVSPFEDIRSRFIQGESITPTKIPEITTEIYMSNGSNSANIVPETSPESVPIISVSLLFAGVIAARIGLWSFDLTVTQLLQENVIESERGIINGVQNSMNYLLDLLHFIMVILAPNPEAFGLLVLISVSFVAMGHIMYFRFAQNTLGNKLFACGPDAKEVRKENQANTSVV
Experiment: ferroportin internalization assay (inhibition of hepcidin-induced internalization of Fpn, MDCK-FPN-HaloTag cells)
Assay type: cell-based
Conditions: for IC50: 100 nM hepcidin, overnight, dilution series 0.04 to 40 μM
Experimental: The hepcidin-antagonistic action of the quinoline compounds of the present invention was determined by means of the “ferroportin internalization assay” described in the following.
Organic compounds of low molecular weight which counteract the biological actions of hepcidin on its receptor, the iron exporter ferroportin (Fpn), were identified on the basis of their ability to inhibit hepcidin-induced internalization of Fpn in living cells. For this purpose, a stable cell line (Madin-Darby canine kidney, MDCK) was produced which constitutively expresses human ferroportin fused recombinantly at its C terminus with a fluorescent reporter protein (HaloTag®, Promega Corp.). The internalization of Fpn was monitored by labelling these cells with fluorescent ligands (HaloTag®-TMR, tetramethylrhodamine) which join covalently on to the HaloTag reporter gene fused with the Fpn. […] Optimized image analysis algorithms were used to ascertain the cell surface and to quantify the corresponding membrane fluorescence associated with the Fpn-HaloTag fusion protein. This assay allows a quantitative image-based analysis in order to quickly evaluate compounds which can block hepcidin-induced internalization of Fpn. This assay is a direct in vitro pendant of the in vivo action mechanism proposed for medicament candidates and is therefore suitable as an initial assay with a high throughput for identifying compounds which counteract the action of hepcidin on its receptor ferroportin.
• 7,500 cells per well (MDCK-FPN-HaloTag) were transinoculated in 50 μl DMEM medium (Dulbeccos modified Eagle medium with 10% foetal bovine serum (FBS), which contained 1% penicillin, 1% streptomycin and 450 μg/ml of G-418) in microtitre plates with 384 wells, (384 Cell carrier plates, Perkin Elmer, cat. no. 6007430), followed by incubation overnight at 37° C./5% CO2. • The volume of the medium was reduced to 10 μl, and 10 μl of 5 μM HaloTag-TMR ligands (Promega, cat. no. G 8251) were added in DMEM medium in order to stain the Fpn-HaloTag fusion protein. • 15 min incubation at 37° C./5% CO2 • The HaloTag-TMR ligand was removed and the cells were washed with fresh DMEM medium and the volume was reduced to 20 μl of DMEM medium. • 3 μl per well of a solution of the test compound (dissolved DMSO) were added ([…]). • 7 μl of […] hepcidin (Peptides International, cat. no. PLP-4392-s, 100 μM stock solution diluted in water in DMEM medium) were added per well up to a final hepcidin concentration of 100 nM. • The cells were incubated overnight at 37° C./5% CO2. • The cells were fixed by adding paraformaldehyde (PFA, Electron Microscopy Sciences, cat. no. 15710-S) directly to the cells up to a final concentration of 4%, followed by incubation at room temperature for 15-20 minutes. • The PFA solution was removed and the cells were washed with PBS (phosphate-buffered saline solution), in each case 30 μl remaining in the plate. • 20 μl of Draq5 (Biostatus, cat. no. DR 51000) were added up to a final concentration of 2.5 μM in order to stain the cell nuclei, and the plates were sealed with a foil plate seal. • The plates were analysed with the Opera Plate Imager (Opera Confocal Plate Imager, Perkin Elmer) with 7 images per well; 440 ms exposure time per image, […] focal point height.

| IC50 | I [%] (median inhibition [%] at 10 μM substance conc.) (10 μM substance conc., hepcidin-induced Fpn internalization) | SMILES |
| --- | --- | --- |
| < 50 µM |  | Oc1c(C(c2cccs2)N2CCOCC2)cc(Cl)c2cccnc12 (centres unmarked) [Example 39, 5-Chloro-7-(morpholin-4-yl-thiophen-2-yl-methyl)-quinolin-8-ol] |
| < 50 µM |  | Cc1ccc(C(c2ccc3cccnc3c2O)N2CCOCC2)cc1 (centres unmarked) [Example 9, 7-(Morpholin-4-yl-p-tolyl-methyl)-quinolin-8-ol] |
| < 50 µM | <50% | COc1cc(C(=O)Oc2c(CN3CCOCC3)cc(Cl)c3cccnc23)cc(OC)c1OC [Example 4, 3,4,5-Trimethoxy-benzoic acid 5-chloro-7-morpholin-4-ylmethyl-quinolin-8-yl ester] |
| < 50 µM |  | COc1ccc(C(c2ccc3cccnc3c2O)N2CCOCC2)cn1 (centres unmarked) [Example 11, 7-[(6-Methoxy-pyridin-3-yl)-morpholin-4-yl-methyl]-quinolin-8-ol] |
